A value given as a limit tells only on which side of the number the result lay.

As usually defined, the inhibition is the change of the read-out against control, counted positive when it falls. For orientation: IC50 means the point on the concentration scale where inhibition reaches its midpoint. High values mean weaker potency, low ones greater potency.

One test deals with T1, Kv2.1 (Homo sapiens, UniProt Q14721).
T1 construct: host or cells: CHO
Briefly: FLIPR thallium influx assay, potassium sulphate stimulated CHO-Kv2.1 cells. To be noted: potassium sulphate stimulated CHO-Kv2.1, at 30 μM; read-out: inhibition of thallium flux. The format is cell-based. As for the experimental part:
HEK-293 cells were transfected with human THIK-1, TREK-1, TWIK-2, or mouse THIK-1 cDNA cloned into pcDNA3.1, using either Fugene HD transfection reagent (Promega) or electroporation (MaxCyte STX instrument). Cells stably expressing the relevant genes were selected based on resistance to 500 μg/ml geneticin (Gibco). For human THIK-1 and TWIK-2 expressing cells, monoclonal lines were isolated by limited dilution cloning; mouse THIK-1 and human TREK-1 expressing cells were maintained as polyclonal pools. The HEK-293 pools and monoclones stably expressing the relevant genes were maintained in DMEM (Life Technologies), supplemented with 10% FCIII (HyClone, Fetal clone III) and 500 μg/ml geneticin. A CHO-Kv2.1 cell line was purchased from Millipore (accession NM_004975) and maintained in F12 (Life Technologies), supplemented with 10% FCSIII (Thermo Scientific) and 500 μg/ml geneticin (Life Technologies). […]
A fluorescence-based thallium influx assay (Molecular Devices potassium assay kit) was used to monitor channel activity. […] Using a fluorescent imaging plate reader (FLIPR) tetra plate reader, 15 μl thallium stimulus solution was added to the cell plate and the fluorescence signal recorded every second for 1 min (excitation: 470–495 nm, emission: 515–575 nm).

The next test concerns the target T2, THIK-1 (Homo sapiens, UniProt Q9HB14).
T2 construct: expressed in transfected cells
T2 sequence (Q9HB14 1-408): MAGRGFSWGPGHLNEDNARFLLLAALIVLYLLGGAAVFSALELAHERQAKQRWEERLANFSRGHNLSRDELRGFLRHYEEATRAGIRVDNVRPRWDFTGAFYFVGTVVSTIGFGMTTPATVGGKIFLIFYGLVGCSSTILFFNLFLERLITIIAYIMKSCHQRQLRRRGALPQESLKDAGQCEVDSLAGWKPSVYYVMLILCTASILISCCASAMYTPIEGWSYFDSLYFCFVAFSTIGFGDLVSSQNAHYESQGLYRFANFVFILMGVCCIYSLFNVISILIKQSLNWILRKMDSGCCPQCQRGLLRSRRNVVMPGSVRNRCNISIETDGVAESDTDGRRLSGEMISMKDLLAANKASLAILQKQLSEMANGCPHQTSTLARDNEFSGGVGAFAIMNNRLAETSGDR
The test can be described thus: Whole-cell manual patch clamp of HEK-hTHIK-1 cells with rapid perfusion exchanger. The format is cell-based. Particulars: current at 50 mV. On the procedure:
Cells were plated onto uncoated, sterile glass coverslips at a density of 1 × 10^6 cells/ml in a droplet of approximately 200 μl and incubated at 37 °C/5% CO2 before use at least 24 h later. Coverslips were transferred to the microscope stage chamber and cells visualised under IR-DIC illumination. The chamber was gravity perfused with a solution containing (in mM): 140 NaCl, 2.5 KCl, 10 HEPES, 1 NaH2PO4.H20, 2 CaCl2, 1 MgCl2, 10 glucose, with pH adjusted to 7.4 using NaOH and osmolarity adjusted to 320 mOsM using sucrose. The chamber was fed from a rapid perfusion exchanger, which continuously perfused square, multi-barrelled glass tubes, using laminar flow. Cells were patched using micropipettes filled with a solution containing (in mM): 125 KCl, 4 NaCl, 1 CaCl2, 10 HEPES, 10 EGTA, 4 MgATP, 2 Na2ATP, 2 MgCl2, 0.5 Na2GTP, pH adjusted to 7.1 with KOH and osmolarity adjusted to 320 mOsm with sucrose. The liquid junction potential was calculated to be 4.8 mV and was not corrected for. […] The current at 50 mV from each sweep was measured and plotted against time. Curves were fitted in GraphPad Prism to a one phase decay [Y= IF(X < X0, Y0, Plateau+(Y0-Plateau)*exp(-K*(X-X0))), where x = time, y = Y0 until X = X0 then decays down to plateau with one phase, K = rate constant]. τ values were calculated to determine the activation time constant.
For orientation: The patch-clamp technique gives a direct electrical read-out from membranes.

Another test concerns the target PKA (h) (Homo sapiens, UniProt P17612). Briefly: Kinase selectivity. The format is biochemical. An excerpt: (§1) Supplement mmc1.docx, table 1 | column: IC50 (μM)
The target in another test is Syk (h) (Homo sapiens, UniProt P43405). Briefly: Kinase selectivity. The format is biochemical.
Excerpt: as §1

T1 sequence (Q14721 whole entry): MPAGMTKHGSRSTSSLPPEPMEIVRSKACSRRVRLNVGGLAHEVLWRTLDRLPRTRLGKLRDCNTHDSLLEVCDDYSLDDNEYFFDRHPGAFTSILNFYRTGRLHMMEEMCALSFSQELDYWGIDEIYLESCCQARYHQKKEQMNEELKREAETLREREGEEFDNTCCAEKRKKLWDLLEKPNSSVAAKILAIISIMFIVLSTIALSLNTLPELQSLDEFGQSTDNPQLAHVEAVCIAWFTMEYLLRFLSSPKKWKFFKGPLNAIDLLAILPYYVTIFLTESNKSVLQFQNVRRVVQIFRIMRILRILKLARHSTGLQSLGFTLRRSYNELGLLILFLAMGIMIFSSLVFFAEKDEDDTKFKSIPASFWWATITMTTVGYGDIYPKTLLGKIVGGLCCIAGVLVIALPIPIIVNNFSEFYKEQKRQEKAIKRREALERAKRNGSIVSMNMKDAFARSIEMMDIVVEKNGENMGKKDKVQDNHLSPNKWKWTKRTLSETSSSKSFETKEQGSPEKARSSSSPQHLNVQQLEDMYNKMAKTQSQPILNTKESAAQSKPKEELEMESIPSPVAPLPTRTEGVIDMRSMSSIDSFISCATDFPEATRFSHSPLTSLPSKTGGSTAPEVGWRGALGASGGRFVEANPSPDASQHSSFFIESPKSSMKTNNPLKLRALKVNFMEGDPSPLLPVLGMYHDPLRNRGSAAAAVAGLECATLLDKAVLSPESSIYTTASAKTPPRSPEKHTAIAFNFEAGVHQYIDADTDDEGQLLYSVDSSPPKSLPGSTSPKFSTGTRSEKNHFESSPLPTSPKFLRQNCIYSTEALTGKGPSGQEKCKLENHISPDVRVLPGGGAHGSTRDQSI

As for `Nc1nonc1-c1nc2ccccc2n1Cc1ccncc1` [C101248], the inhibition at 30 µM on Kv2.1 is -3%. The “activation time constant (τ)” value at THIK-1 (0.5 μM) was 217.4 ± 61.4 s; on THIK-1 (5 μM), 83.4 ± 17.2 s. In addition, the IC50 at PKA (h) and against Syk (h) was more than 10 µM each time.

Source of the values: paper PMC9841576, “Characterisation of C101248: A novel selective THIK-1 channel inhibitor for the modulation of microglial NLRP3-inflammasome” (Neuropharmacology, 2023).
